Experimental findings from paper PMC10362175, “Selenium-binding protein 1 (SELENBP1) is a copper-dependent thiol oxidase” (Redox Biology, 2023) are described below.

Type in all cases: biochemical
Assay [1] has as its target T1, methionine gamma-lyase (MGL) (Brevibacterium aurantiacum, UniProt A0A2H1K3G9).
T1 construct: gene BAUR9175_03070
Nature of the assay: DTNB (Ellman's reagent) trapping of volatile thiol, […] nm. Particulars: HBS, 3 h. (In general: Ellman's reagent forms a yellow product with free thiols.)

The next assay concerns the target T2, SELENBP1 (Homo sapiens, UniProt Q13228).
T2 construct: Strep-tagged recombinant, E. coli BL21 or KRX, Strep-Tactin XT purified, 56 kDa
T2 sequence (Q13228 2-472): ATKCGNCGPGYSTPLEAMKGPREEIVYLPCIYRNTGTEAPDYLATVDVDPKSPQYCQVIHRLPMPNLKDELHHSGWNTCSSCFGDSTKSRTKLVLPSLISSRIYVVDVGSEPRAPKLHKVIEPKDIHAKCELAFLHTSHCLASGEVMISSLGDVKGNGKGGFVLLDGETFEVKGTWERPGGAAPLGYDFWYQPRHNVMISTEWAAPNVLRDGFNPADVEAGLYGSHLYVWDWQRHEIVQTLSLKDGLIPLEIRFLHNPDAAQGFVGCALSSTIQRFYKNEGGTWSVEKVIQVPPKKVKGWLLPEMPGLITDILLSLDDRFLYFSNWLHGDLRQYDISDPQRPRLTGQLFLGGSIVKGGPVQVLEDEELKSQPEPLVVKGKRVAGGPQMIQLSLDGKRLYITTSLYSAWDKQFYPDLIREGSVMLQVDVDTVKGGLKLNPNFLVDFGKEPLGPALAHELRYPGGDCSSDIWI
Nature of the assay: coupled MGL assay, H2S (lead acetate paper) and H2O2 (fluorometric). The following applies: Cu cofactor, HBS pH 7.4, 37 °C, 3 h.

A further assay concerns the target T3, SEMO-1 (Caenorhabditis elegans, UniProt Q9XXF9).
T3 construct: Strep-tagged recombinant, E. coli BL21 or KRX, Strep-Tactin XT purified
The description is as above. Particulars: Cu cofactor; methanethiol generated in situ from L-methionine; HBS pH 7.4; 37 °C, 3 h.

The structures appear in SMILES notation.

T1 sequence (A0A2H1K3G9 14-406 limits assumed): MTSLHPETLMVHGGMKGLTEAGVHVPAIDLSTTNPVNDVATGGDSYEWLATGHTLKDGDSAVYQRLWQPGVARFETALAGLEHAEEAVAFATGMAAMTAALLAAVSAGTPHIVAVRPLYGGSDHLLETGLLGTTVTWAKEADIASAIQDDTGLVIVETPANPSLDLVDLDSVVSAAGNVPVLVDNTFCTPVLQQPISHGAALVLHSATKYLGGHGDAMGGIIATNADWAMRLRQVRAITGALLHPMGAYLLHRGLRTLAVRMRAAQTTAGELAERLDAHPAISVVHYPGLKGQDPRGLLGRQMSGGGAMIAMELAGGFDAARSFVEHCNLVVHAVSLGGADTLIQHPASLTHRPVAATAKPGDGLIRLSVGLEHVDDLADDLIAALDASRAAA
T3 sequence (Q9XXF9 entry or part of it): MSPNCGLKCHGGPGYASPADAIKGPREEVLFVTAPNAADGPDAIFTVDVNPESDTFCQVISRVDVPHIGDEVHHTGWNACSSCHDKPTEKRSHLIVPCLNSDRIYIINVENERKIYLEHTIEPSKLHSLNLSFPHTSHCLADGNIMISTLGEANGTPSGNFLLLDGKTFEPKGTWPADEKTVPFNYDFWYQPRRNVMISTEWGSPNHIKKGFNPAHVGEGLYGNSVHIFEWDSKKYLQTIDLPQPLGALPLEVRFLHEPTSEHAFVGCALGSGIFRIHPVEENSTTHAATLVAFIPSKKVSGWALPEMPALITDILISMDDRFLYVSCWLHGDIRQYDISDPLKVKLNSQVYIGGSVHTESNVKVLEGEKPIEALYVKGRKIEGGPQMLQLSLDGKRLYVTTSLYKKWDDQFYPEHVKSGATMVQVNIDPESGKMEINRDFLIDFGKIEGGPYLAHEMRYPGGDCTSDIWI

For `N[C@@H](CCS)C(=O)O` [L-homocysteine], the “DTNB (Ellman's reagent) trapping of volatile thiol, 412 nm” value in assay [1] (product H2S) is “ethanethiol, methaneselenol and H2S were generated by MGL-mediated elimination from their precursor amino acids”. Take `CSCC[C@H](N)C(=O)O` [L-methionine]: in assay [1] (product methanethiol), the “DTNB (Ellman's reagent) trapping of volatile thiol, 412 nm” value is on record as “MGL-mediated generation of methanethiol from methionine served as positive control”. With `CS` [methanethiol], the “coupled MGL assay, H2S (lead acetate paper) and H2O2 (fluorometric)” value on SELENBP1 (methanethiol generated in situ from L-methionine) is “methanethiol and ethanethiol are by far the best SELENBP1 substrates”; at SEMO-1, “only the addition of cupric ions was capable of regenerating and even enhancing MTO activity”. `CCS` [ethanethiol]: at SELENBP1 (ethanethiol generated in situ from DL-ethionine), the “coupled MGL assay, H2S (lead acetate paper) and H2O2 (fluorometric)” value was “methanethiol and ethanethiol are by far the best SELENBP1 substrates”.
